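Cultured in 96-well plates, cells were exposed to test compound for 48 hours across five concentrations. GI50 is the concentration that inhibits growth by half. TGI is the concentration that stops growth completely.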 Bounds are passed on as bounds.

Test systems include SW-620 colon; NCI-H460 lung; OVCAR-5 ovarian; SNB-19 CNS; OVCAR-3 ovarian; T-47D breast; NCI-H226 lung; HCT-15 colon.
What all share (assay): inhibition of tumour cell growth, NCI panel, 48 h

For the compound `N#Cc1c(N)nc(N2CCOCC2)c(C#N)c1-c1ccccc1Cl`, the GI50 in the experiment on SW-620 colon was over 100 µM; in the experiment with NCI-H460 lung it was 26.8 µM; in the experiment on OVCAR-5 ovarian, 26.4 µM; in the experiment with SNB-19 CNS it was 48.5 µM; with OVCAR-3 ovarian, 17.3 µM; with T-47D breast, 21.2 µM. The results for the GI50 in the experiment on NCI-H226 lung and with HCT-15 colon were 55.5 µM and 41.4 µM, respectively. For the same compound, the TGI in the experiment with SW-620 colon was over 100 µM; in the experiment on NCI-H460 lung, over 100 µM; with OVCAR-5 ovarian it was over 100 µM; in the experiment on SNB-19 CNS, over 100 µM; in the experiment on OVCAR-3 ovarian, 87.1 µM; in the experiment with T-47D breast, over 100 µM. Also, the TGI in the experiment on NCI-H226 lung and in the experiment on HCT-15 colon was over 100 µM throughout.
Regarding `COc1cc2c(cc1OCCCCOc1ccc(-c3nc4ccccc4s3)cc1)N=C[C@@H]1CCCN1C2=O`, the GI50 is 0.426 µM in the experiment on SW-620 colon; 1.56 µM with NCI-H460 lung; 0.861 µM in the experiment on OVCAR-5 ovarian; 1.52 µM in the experiment on SNB-19 CNS; 0.477 µM with OVCAR-3 ovarian; 0.339 µM in the experiment on T-47D breast. For the same compound, the GI50 with NCI-H226 lung is 1.71 µM; with HCT-15 colon, 1.08 µM. The TGI with SW-620 colon is 1.77 µM; in the experiment with NCI-H460 lung, 4.06 µM; in the experiment with OVCAR-5 ovarian, 3.86 µM; in the experiment on SNB-19 CNS, 3.04 µM; in the experiment with OVCAR-3 ovarian, 3.47 µM; in the experiment with T-47D breast it was 1.45 µM. Moreover, the TGI in the experiment with NCI-H226 lung and in the experiment on HCT-15 colon was 3.89 µM each time.
With `O=C1NN(c2ccccc2)C(=O)/C1=C/c1ccc(Br)o1`, the GI50 with SW-620 colon is 4.85 µM; with NCI-H460 lung, 15.1 µM; in the experiment on OVCAR-5 ovarian, 14.2 µM; in the experiment with SNB-19 CNS it was 17.5 µM; in the experiment with OVCAR-3 ovarian, 1.07 µM; with T-47D breast, 18.9 µM. The GI50 is 13.5 µM with NCI-H226 lung and 10.1 µM with HCT-15 colon. The TGI is 24.5 µM in the experiment with SW-620 colon; 36 µM with NCI-H460 lung; 30.6 µM in the experiment with OVCAR-5 ovarian; 41.9 µM with SNB-19 CNS; 13.2 µM with OVCAR-3 ovarian; 52.3 µM in the experiment with T-47D breast. Besides, the TGI in the experiment on NCI-H226 lung was found to be 34.7 µM; in the experiment on HCT-15 colon, 24.7 µM.
For `C[C@H](N)C(=O)N1C[C@H](CCCB(O)O)[C@](N)(C(=O)O)C1`, the GI50 in the experiment with SW-620 colon, in the experiment on NCI-H460 lung, with OVCAR-5 ovarian, in the experiment with SNB-19 CNS, in the experiment on OVCAR-3 ovarian and in the experiment on T-47D breast was over 100 µM throughout. In addition, the GI50 in the experiment with NCI-H226 lung and with HCT-15 colon was over 100 µM throughout. The TGI in the experiment on SW-620 colon, in the experiment on NCI-H460 lung, with OVCAR-5 ovarian, in the experiment with SNB-19 CNS, in the experiment with OVCAR-3 ovarian and in the experiment with T-47D breast was over 100 µM each time. In addition, the TGI in the experiment on NCI-H226 lung and with HCT-15 colon was over 100 µM in each case.
On to `COc1ccc(N(C)c2c3ccccc3nc3[nH]c4ccccc4c23)cc1`, for which the GI50 with SW-620 colon was 0.582 µM; with NCI-H460 lung, 0.151 µM; in the experiment on OVCAR-5 ovarian, 0.917 µM; with SNB-19 CNS, 0.634 µM; in the experiment on OVCAR-3 ovarian, 0.261 µM; in the experiment on T-47D breast, 0.986 µM. For the same compound, the GI50 is 0.9 µM in the experiment on NCI-H226 lung and 2.29 µM with HCT-15 colon. Moreover, the TGI in the experiment on SW-620 colon turned out to be 26.4 µM; in the experiment on NCI-H460 lung, 7.12 µM; with OVCAR-5 ovarian it was 4.57 µM; in the experiment with SNB-19 CNS, 5.62 µM; in the experiment with OVCAR-3 ovarian it was 1.16 µM; in the experiment with T-47D breast it was 2.61 µM. In addition, the TGI came out at 3.99 µM in the experiment with NCI-H226 lung and 9.3 µM in the experiment on HCT-15 colon.
As to `NC1CCC(N[C@@H]2C[C@H]2c2ccccc2)CC1` (stereo partly drawn), the GI50 with SW-620 colon, with NCI-H460 lung, with OVCAR-5 ovarian, in the experiment on SNB-19 CNS, in the experiment on OVCAR-3 ovarian and with T-47D breast was over 100 µM in each case. For the same compound, the GI50 in the experiment with NCI-H226 lung was over 100 µM; in the experiment with HCT-15 colon it was 74.4 µM. The TGI with SW-620 colon, in the experiment on NCI-H460 lung, with OVCAR-5 ovarian, in the experiment on SNB-19 CNS, with OVCAR-3 ovarian and with T-47D breast was over 100 µM in each case. For the same compound, the TGI with NCI-H226 lung and in the experiment on HCT-15 colon was over 100 µM each time.
For the compound `O=C(Nc1ccccc1)Nc1cccc(Oc2nnc(Cl)c3ccccc23)c1`, the GI50 is 8.41 µM in the experiment with SW-620 colon; 2.67 µM in the experiment on NCI-H460 lung; 5.61 µM in the experiment with OVCAR-5 ovarian; 1.67 µM in the experiment with SNB-19 CNS; 2.64 µM in the experiment on OVCAR-3 ovarian; 0.863 µM in the experiment with T-47D breast. Besides, the GI50 in the experiment on NCI-H226 lung is 1.95 µM; with HCT-15 colon, 3.54 µM. Further, the TGI in the experiment with SW-620 colon is over 25 µM; with NCI-H460 lung, 8.65 µM; in the experiment on OVCAR-5 ovarian, 15.3 µM; with SNB-19 CNS, 8.46 µM; in the experiment on OVCAR-3 ovarian, 5.97 µM; with T-47D breast it was 10.8 µM. The values for the TGI in the experiment on NCI-H226 lung and in the experiment with HCT-15 colon were 9.25 µM and 12.9 µM, respectively.
With `CC(=O)OC1Oc2ccccc2-c2oc(=O)c(-c3cc4ccccc4oc3=O)cc21` (stereo not drawn), the GI50 is 65 µM in the experiment with SW-620 colon; 27.8 µM with NCI-H460 lung; 35 µM with OVCAR-5 ovarian; 17 µM with SNB-19 CNS; 19.1 µM with OVCAR-3 ovarian; 21.3 µM in the experiment with T-47D breast. For the same compound, the GI50 in the experiment on NCI-H226 lung was 17.1 µM; with HCT-15 colon, 22.3 µM. Also, the TGI in the experiment with SW-620 colon is over 100 µM; in the experiment on NCI-H460 lung, 91 µM; in the experiment with OVCAR-5 ovarian, over 100 µM; with SNB-19 CNS it was 32.4 µM; in the experiment with OVCAR-3 ovarian, 46.6 µM; in the experiment on T-47D breast, 51.8 µM. In addition, the TGI in the experiment with NCI-H226 lung is 35.4 µM; in the experiment with HCT-15 colon, over 100 µM.
With `CCCN(CCSSCCNc1nc(N(C)O)nc(N(C)O)n1)c1nc(N(C)O)nc(N(C)O)n1`, the GI50 in the experiment with SW-620 colon was 6.72 µM; in the experiment with NCI-H460 lung, 3.87 µM; with OVCAR-5 ovarian, over 100 µM; in the experiment with SNB-19 CNS, 4.15 µM; in the experiment with OVCAR-3 ovarian, 6.42 µM; in the experiment on T-47D breast, 7.14 µM. The GI50 in the experiment with NCI-H226 lung was 7.76 µM; in the experiment with HCT-15 colon it was 4.28 µM. Besides, the TGI in the experiment with SW-620 colon, in the experiment with NCI-H460 lung, with OVCAR-5 ovarian, with SNB-19 CNS, in the experiment on OVCAR-3 ovarian and in the experiment with T-47D breast was over 100 µM each time. The TGI in the experiment on NCI-H226 lung and in the experiment with HCT-15 colon was over 100 µM in each case.
Turning to `COc1ccc2c(c1)/C(=N/OC(C)=O)c1c-2c(=O)[nH]c2ccccc12`, the GI50 was 14.2 µM in the experiment with SW-620 colon; 59 µM in the experiment on NCI-H460 lung; 11.5 µM in the experiment with OVCAR-5 ovarian; 15.3 µM in the experiment on SNB-19 CNS; 16.5 µM in the experiment on OVCAR-3 ovarian; 3 µM with T-47D breast. Further, the GI50 with NCI-H226 lung was 14.3 µM; in the experiment on HCT-15 colon it was 16.1 µM. For the same compound, the TGI with SW-620 colon was 30.3 µM; in the experiment on NCI-H460 lung it was over 100 µM; with OVCAR-5 ovarian, 24.5 µM; in the experiment with SNB-19 CNS it was 40.4 µM; with OVCAR-3 ovarian, 36.3 µM; in the experiment on T-47D breast, 27.2 µM. The TGI is 29.8 µM in the experiment with NCI-H226 lung and 38.1 µM with HCT-15 colon.
For `N#C/C(=C\c1ccc(Br)cc1)n1nnc2ccccc21`, the GI50 in the experiment on SW-620 colon was 0.318 µM; in the experiment with NCI-H460 lung, 1.68 µM; in the experiment with OVCAR-5 ovarian, 1.13 µM; in the experiment on SNB-19 CNS it was 0.763 µM; in the experiment with OVCAR-3 ovarian, 0.244 µM; in the experiment on T-47D breast it was 0.376 µM. In addition, the figures for the GI50 in the experiment on NCI-H226 lung and in the experiment on HCT-15 colon were 1.4 µM and 0.273 µM, respectively. Besides, the TGI in the experiment with SW-620 colon worked out at 1.57 µM; in the experiment with NCI-H460 lung, 3.82 µM; with OVCAR-5 ovarian it was 3.26 µM; in the experiment with SNB-19 CNS, 2.41 µM; with OVCAR-3 ovarian, 0.604 µM; in the experiment on T-47D breast, 4.74 µM. Besides, the TGI is 6.75 µM in the experiment on NCI-H226 lung and 3.03 µM in the experiment with HCT-15 colon.
As to `OCC(O)C(O)C(O)/C=N/Nc1nc2ccccc2nc1-c1ccccc1` (stereo not drawn), the GI50 is over 100 µM in the experiment on SW-620 colon; 70.3 µM with NCI-H460 lung; over 100 µM in the experiment with OVCAR-5 ovarian; over 100 µM in the experiment with SNB-19 CNS; 46 µM in the experiment with OVCAR-3 ovarian; 41.5 µM in the experiment with T-47D breast. Further, the GI50 is over 100 µM with NCI-H226 lung and 86.3 µM in the experiment with HCT-15 colon. For the same compound, the TGI in the experiment on SW-620 colon, in the experiment on NCI-H460 lung, in the experiment on OVCAR-5 ovarian, with SNB-19 CNS, in the experiment with OVCAR-3 ovarian and with T-47D breast was over 100 µM in each case. Also, the TGI in the experiment on NCI-H226 lung and in the experiment on HCT-15 colon was over 100 µM in each case.
`CN1CCN(c2ccc(C(=O)Nc3cc(-c4cccc(NS(=O)(=O)c5ccccc5)c4)[nH]n3)cc2)CC1`: the GI50 with SW-620 colon is 5.86 µM; in the experiment on NCI-H460 lung, 5.46 µM; in the experiment with OVCAR-5 ovarian it was 13.8 µM; in the experiment with SNB-19 CNS, 14.2 µM; in the experiment on OVCAR-3 ovarian it was 12.7 µM; in the experiment on T-47D breast it was 3.8 µM. Further, the GI50 was 12.6 µM in the experiment with NCI-H226 lung and 12.3 µM in the experiment with HCT-15 colon. In addition, the TGI with SW-620 colon amounted to 27.2 µM; in the experiment with NCI-H460 lung it was 23.1 µM; in the experiment on OVCAR-5 ovarian, 46.6 µM; in the experiment with SNB-19 CNS it was 32.2 µM; in the experiment on OVCAR-3 ovarian, 25.8 µM; with T-47D breast it was 18.6 µM. For the same compound, the TGI came to 40 µM with NCI-H226 lung and 39.2 µM in the experiment with HCT-15 colon.

(Values after PubChem BioAssay (NCI).)
